From patent publication US20250170141A1, “MRGPRX2 MODULATORS AND RELATED METHODS OF TREATMENT” (Escient Pharmaceuticals, Inc., priority 2023, published 2025)

Biological target: T1, human MRGPRX2 (Homo sapiens, UniProt Q96LB1)
T1 construct: expressed in transfected cells; host or cells: CHO cells, stably transfected (G418 and Hygromycin B selection)
T1 sequence (Q96LB1 1-330): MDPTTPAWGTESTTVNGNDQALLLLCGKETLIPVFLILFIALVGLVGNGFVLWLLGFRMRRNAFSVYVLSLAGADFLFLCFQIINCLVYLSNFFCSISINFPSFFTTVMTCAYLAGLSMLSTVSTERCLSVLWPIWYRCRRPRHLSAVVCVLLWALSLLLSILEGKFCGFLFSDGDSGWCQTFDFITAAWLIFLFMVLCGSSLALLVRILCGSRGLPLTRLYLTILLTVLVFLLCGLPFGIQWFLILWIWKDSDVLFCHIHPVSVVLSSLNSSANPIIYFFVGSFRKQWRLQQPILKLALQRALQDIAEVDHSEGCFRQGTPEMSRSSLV
Experiment: MRGPRX2 activity: IP-One Gq HTRF assay in CHO cells, antagonism versus 0.3 uM Cortistatin-14
Format: cell-based
Settings: versus 0.3 uM Cortistatin-14 agonist, CHO cells expressing human MRGPRX2, read-out: MRGPRX2 Antagonist Activity
Experimental: CHO cells stably transfected to express human MRGPRX2 were maintained in an incubator at 37° C. with 5% CO2 and grown in F12 (HAM) media with 10% fetal bovine serum (FBS), 1% Glutamax, 1% penicillin/streptomycin, 800 μg/mL Geneticin (G418), and 300 μg/mL Hygromycin B.
Cells were plated in a 384-well assay plate at 20,000 cells per well in 12 μL of Opti-MEM and kept in an incubator overnight. On the day of the assay, compounds solubilized at 10 mM in DMSO were added as a 10-point curve (30 uM final top concentration with 1:3 serial dilutions) using a Tecan D300E digital dispenser. Agonists were diluted in assay buffer (final concentrations of 5.7 mM Tris-HCl, 43 mM NaCl, 50 mM LiCl, pH=8) and 2 μL of the agonist Cortistatin-14 (CPC Scientific, catalog CORT-002) are added to each well. Final concentrations of agonists were 0.3 μM Cortistatin. Final concentrations of DMSO were kept consistent across the plate. Plates were incubated in the dark for 1 h at 37° C. and then for 1 h at room temperature. IP-1 standards and HTRF detection reagents were added according to the IP-One—Gq Kit purchased from Cisbio (part number 62IPAPEJ) and incubated in the dark for 1 h at room temperature. The plate was read on a Molecular Devices SpectraMax iD5 plate reader. The HTRF ratio was calculated from the raw data and graphed using GraphPad Prism to calculate an IC50 value for each compound.
The activity ranges are denoted as follows: “+++++” denotes antagonist activity <100 nM; “++++” denotes antagonist activity between 100 and 500 nM; “+++” denotes activity between 501 and 1000 nM; “++” denotes activity between 1001 and 2500 nM; and “+” denotes activity >2500 nM.

Row | IC50 [nM] | Compound
1 | 100 to 500 | O=S1(=O)N=C(NCc2ncccc2F)Nc2c1ccc(F)c2Oc1ccccc1F [Compound 1-15, 6-fluoro-5-(2-fluorophenoxy)-3-(((3-fluoropyridin-2-yl)methyl)amino)-4H-benzo[e][1,2,4]thiadiazine 1,1-dioxide]
2 | < 100 | O=S1(=O)N=C(NCc2ccccc2F)Nc2c(Cc3cccc(F)c3)cccc21 [Compound 6-8, 5-(3-fluorobenzyl)-3-((2-fluorobenzyl)amino)-4H-benzo[e][1,2,4]thiadiazine 1,1-dioxide]
3 | < 100 | Cc1ccc(CNC2=NS(=O)(=O)c3cccc(Cc4ccccc4Cl)c3N2)c(C)c1 [Compound 12-8, 5-(2-chlorobenzyl)-3-((2,4-dimethylbenzyl)amino)-4H-benzo[e][1,2,4]thiadiazine 1,1-dioxide]
4 | 1000 to 2500 | COc1ccc(Oc2c(F)ccc3c2NC(NCc2ncccc2F)=NS3(=O)=O)cc1 [Compound 2-11, 6-fluoro-3-(((3-fluoropyridin-2-yl)methyl)amino)-5-(4-methoxyphenoxy)-4H-benzo[e][1,2,4]thiadiazine 1,1-dioxide]
5 | 100 to 500 | O=S1(=O)N=C(NCc2ncccc2F)Nc2c1ccc(F)c2Oc1c(F)cccc1Cl [Compound 1-17, 5-(2-chloro-6-fluorophenoxy)-6-fluoro-3-(((3-fluoropyridin-2-yl)methyl)amino)-4H-benzo[e][1,2,4]thiadiazine 1,1-dioxide]
6 | < 100 | O=S1(=O)N=C(NCc2ncccc2F)Nc2c1ccc(F)c2Oc1ccc(F)cc1F [Compound 1-39, 5-(2,4-difluorophenoxy)-6-fluoro-3-(((3-fluoropyridin-2-yl)methyl)amino)-4H-benzo[e][1,2,4]thiadiazine 1,1-dioxide]
7 | < 100 | Cc1ccccc1CNC1=NS(=O)(=O)c2cccc(Cc3ccccc3Cl)c2N1 [Compound 12-19, 5-(2-chlorobenzyl)-3-((2-methylbenzyl)amino)-4H-benzo[e][1,2,4]thiadiazine 1,1-dioxide]
8 | 100 to 500 | O=S1(=O)N=C(NCc2ncccc2F)Nc2c(Oc3ccccc3Cl)c(F)cc(Cl)c21 [Compound 1-41, 8-chloro-5-(2-chlorophenoxy)-6-fluoro-3-(((3-fluoropyridin-2-yl)methyl)amino)-4H-benzo[e][1,2,4]thiadiazine 1,1-dioxide]
9 | < 100 | O=S1(=O)N=C(NCc2ccc(F)cc2Cl)Nc2c(Cc3ccccc3Cl)cccc21 [Compound 12-4, 3-((2-chloro-4-fluorobenzyl)amino)-5-(2-chlorobenzyl)-4H-benzo[e][1,2,4]thiadiazine 1,1-dioxide]
10 | < 100 | O=S1(=O)N=C(NCc2ncccc2F)Nc2c1ccc(F)c2Oc1cccc(Cl)c1Cl [Compound 1-10, 5-(2,3-dichlorophenoxy)-6-fluoro-3-(((3-fluoropyridin-2-yl)methyl)amino)-4H-benzo[e][1,2,4]thiadiazine 1,1-dioxide]
11 | < 100 | CC(c1ccccc1F)c1c(F)ccc2c1NC(NCc1ccccc1F)=NS2(=O)=O (centres unmarked) [Compound 7-5, 6-fluoro-3-((2-fluorobenzyl)amino)-5-(1-(2-fluorophenyl)ethyl)-4H-benzo[e][1,2,4]thiadiazine 1,1-dioxide]
12 | < 100 | CC(c1ccccc1F)c1c(F)c(F)cc2c1NC(NCc1ncccc1F)=NS2(=O)=O (centres unmarked) [Compound 9-7, 6,7-difluoro-5-(1-(2-fluorophenyl)ethyl)-3-(((3-fluoropyridin-2-yl)methyl)amino)-4H-benzo[e][1,2,4]thiadiazine 1,1-dioxide]
13 | 1000 to 2500 | O=S1(=O)N=C(NCc2ncccc2C(F)(F)F)Nc2c1ccc(F)c2Oc1ccccc1Cl [Compound 1-26, 5-(2-chlorophenoxy)-6-fluoro-3-(((3-(trifluoromethyl)pyridin-2-yl)methyl)amino)-4H-benzo[e][1,2,4]thiadiazine 1,1-dioxide]
14 | < 100 | O=S1(=O)N=C(NCc2cc(F)ccc2F)Nc2c1ccc(F)c2Oc1ccccc1Cl [Compound 1-23, 5-(2-chlorophenoxy)-3-((2,5-difluorobenzyl)amino)-6-fluoro-4H-benzo[e][1,2,4]thiadiazine 1,1-dioxide]
15 | 100 to 500 | O=C(c1ccccc1Cl)c1c(F)ccc2c1NC(NCc1ncccc1F)=NS2(=O)=O [Compound 16-6, (2-chlorophenyl)(6-fluoro-3-(((3-fluoropyridin-2-yl)methyl)amino)-1,1-dioxido-4H-benzo[e][1,2,4]thiadiazin-5-yl)methanone]
16 | < 100 | Cc1c(F)cccc1CNC1=NS(=O)(=O)c2ccc(F)c(Oc3ccccc3Cl)c2N1 [Compound 1-24, 5-(2-chlorophenoxy)-6-fluoro-3-((3-fluoro-2-methylbenzyl)amino)-4H-benzo[e][1,2,4]thiadiazine 1,1-dioxide]
17 | 100 to 500 | O=S1(=O)N=C(NCc2cccc3ccccc23)Nc2c1ccc(F)c2Oc1ccccc1Cl [Compound 2-6, 5-(2-chlorophenoxy)-6-fluoro-3-((naphthalen-1-ylmethyl)amino)-4H-benzo[e][1,2,4]thiadiazine 1,1-dioxide]
18 | < 100 | C=C(c1ccccc1F)c1cccc2c1NC(NCc1ncccc1F)=NS2(=O)=O [Compound 13-2, 5-(1-(2-fluorophenyl)vinyl)-3-(((3-fluoropyridin-2-yl)methyl)amino)-4H-benzo[e][1,2,4]thiadiazine 1,1-dioxide]
19 | < 100 | O=S1(=O)N=C(NCc2ncccc2F)Nc2c1cc(F)c(F)c2Oc1ccccc1Cl [Compound 1-5, 5-(2-chlorophenoxy)-6,7-difluoro-3-(((3-fluoropyridin-2-yl)methyl)amino)-4H-benzo[e][1,2,4]thiadiazine 1,1-dioxide]
20 | < 100 | Cc1cccnc1CNC1=NS(=O)(=O)c2cccc(Cc3ccccc3Cl)c2N1 [Compound 12-21, 5-(2-chlorobenzyl)-3-(((3-methylpyridin-2-yl)methyl)amino)-4H-benzo[e][1,2,4]thiadiazine 1,1-dioxide]
21 | < 100 | C[C@H](c1ccccc1F)c1c(F)ccc2c1NC(NCc1ccccc1F)=NS2(=O)=O [Compound 24-1, (R)-6-fluoro-3-((2-fluorobenzyl)amino)-5-(1-(2-fluorophenyl)ethyl)-4H-benzo[e][1,2,4]thiadiazine 1,1-dioxide]
22 | > 2500 | O=S1(=O)N=C(NCc2ncccc2O)Nc2c1ccc(F)c2Oc1ccccc1Cl [Compound 1-37, 5-(2-chlorophenoxy)-6-fluoro-3-(((3-hydroxypyridin-2-yl)methyl)amino)-4H-benzo[e][1,2,4]thiadiazine 1,1-dioxide]
23 | 100 to 500 | CC(c1ccccc1F)c1c(F)ccc2c1NC(NCc1cccnc1)=NS2(=O)=O (centres unmarked) [Compound 7-3, 6-fluoro-5-(1-(2-fluorophenyl)ethyl)-3-((pyridin-3-ylmethyl)amino)-4H-benzo[e][1,2,4]thiadiazine 1,1-dioxide]
24 | 100 to 500 | Cc1ccc(Cc2cccc3c2NC(NCc2ccccc2F)=NS3(=O)=O)cc1 [Compound 6-16, 3-((2-fluorobenzyl)amino)-5-(4-methylbenzyl)-4H-benzo[e][1,2,4]thiadiazine 1,1-dioxide]
25 | < 100 | CC(Cc1ccc(F)cc1)c1c(F)ccc2c1NC(NCc1cccc(F)c1)=NS2(=O)=O (centres unmarked) [Compound 22-17, 6-fluoro-3-((3-fluorobenzyl)amino)-5-(1-(4-fluorophenyl)propan-2-yl)-4H-benzo[e][1,2,4]thiadiazine 1,1-dioxide]
26 | > 2500 | Cc1ccc(NC2=NS(=O)(=O)c3ccc(F)c(Oc4ccccc4Cl)c3N2)cc1 [Compound 1-13, 5-(2-chlorophenoxy)-6-fluoro-3-(p-tolylamino)-4H-benzo[e][1,2,4]thiadiazine 1,1-dioxide]
27 | 100 to 500 | O=S1(=O)N=C(NCc2ccccc2C(F)(F)F)Nc2c1cc(F)c(F)c2Oc1ccccc1Cl [Compound 1-22, 5-(2-chlorophenoxy)-6,7-difluoro-3-((2-(trifluoromethyl)benzyl)amino)-4H-benzo[e][1,2,4]thiadiazine 1,1-dioxide]

Row | Compound | IC50 [nM]
28 | CC(c1ccc(F)cc1)c1c(F)ccc2c1NC(NCc1ncccc1F)=NS2(=O)=O (centres unmarked) [Compound 8-2, 6-fluoro-5-(1-(4-fluorophenyl)ethyl)-3-(((3-fluoropyridin-2-yl)methyl)amino)-4H-benzo[e][1,2,4]thiadiazine 1,1-dioxide] | < 100
29 | CC(c1ccccc1F)c1c(F)ccc2c1NC(NCc1cccc(F)n1)=NS2(=O)=O (centres unmarked) [Compound 9-5, 6-fluoro-5-(1-(2-fluorophenyl)ethyl)-3-(((6-fluoropyridin-2-yl)methyl)amino)-4H-benzo[e][1,2,4]thiadiazine 1,1-dioxide] | < 100
